The text below walks through data of ChEMBL document CHEMBL1139848, “Structure-guided optimization of estrogen receptor binding affinity and antagonist potency of pyrazolopyrimidines with basic side chains” (J Med Chem, 2007).

pIC50, pKi: −log10 of the molar value.

The target in test [1] is T1, Estrogen receptor (Homo sapiens, UniProt P03372).
T1 sequence (P03372 whole entry): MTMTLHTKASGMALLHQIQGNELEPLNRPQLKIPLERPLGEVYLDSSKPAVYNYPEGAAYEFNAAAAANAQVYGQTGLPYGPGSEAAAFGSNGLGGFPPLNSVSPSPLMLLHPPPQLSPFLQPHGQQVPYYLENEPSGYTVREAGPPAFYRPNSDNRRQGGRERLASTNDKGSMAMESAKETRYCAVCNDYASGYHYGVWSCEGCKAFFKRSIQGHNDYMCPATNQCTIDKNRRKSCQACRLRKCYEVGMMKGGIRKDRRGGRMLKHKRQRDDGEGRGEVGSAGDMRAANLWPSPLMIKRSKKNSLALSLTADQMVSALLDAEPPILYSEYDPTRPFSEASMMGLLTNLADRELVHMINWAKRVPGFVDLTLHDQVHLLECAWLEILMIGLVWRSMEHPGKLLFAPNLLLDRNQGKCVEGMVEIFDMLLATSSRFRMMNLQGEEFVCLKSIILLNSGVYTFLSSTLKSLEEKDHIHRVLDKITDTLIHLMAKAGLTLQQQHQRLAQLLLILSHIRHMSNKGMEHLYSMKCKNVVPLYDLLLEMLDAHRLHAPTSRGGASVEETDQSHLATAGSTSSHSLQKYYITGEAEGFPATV
Put plainly: Binding affinity to ERalpha.

Test [2] concerns the target T2, Estrogen receptor beta (Homo sapiens, UniProt Q92731). Put plainly: Binding affinity to ERbeta.
The target in test [3] is T2, Estrogen receptor beta. Put plainly: Antagonist potency at ERbeta expressed in human HEC1 cells by luciferase reporter gene assay. Format: functional, cell-based, HEC-1. (In general: A reporter such as luciferase makes a cellular process visible.)
Test [4] addresses T1, Estrogen receptor. Put plainly: Antagonist potency at ERalpha expressed in human HEC1 cells by luciferase reporter gene assay. Format: functional, cell-based, HEC-1.

T2 sequence (Q92731 whole entry): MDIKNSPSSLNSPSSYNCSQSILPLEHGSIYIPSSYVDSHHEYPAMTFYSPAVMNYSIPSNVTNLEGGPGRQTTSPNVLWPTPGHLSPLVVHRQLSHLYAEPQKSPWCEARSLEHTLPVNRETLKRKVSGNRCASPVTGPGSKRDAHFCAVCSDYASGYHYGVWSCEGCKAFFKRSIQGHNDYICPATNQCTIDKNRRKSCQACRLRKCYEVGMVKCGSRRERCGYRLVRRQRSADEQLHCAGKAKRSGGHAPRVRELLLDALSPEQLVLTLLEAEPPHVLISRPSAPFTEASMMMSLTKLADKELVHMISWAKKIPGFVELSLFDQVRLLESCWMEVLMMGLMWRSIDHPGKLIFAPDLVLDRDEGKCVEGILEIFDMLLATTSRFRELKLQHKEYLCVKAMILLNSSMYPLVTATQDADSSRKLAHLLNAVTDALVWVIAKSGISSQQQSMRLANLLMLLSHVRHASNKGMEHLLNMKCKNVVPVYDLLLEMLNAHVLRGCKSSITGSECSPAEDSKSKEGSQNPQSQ

The term pKi denotes the Ki on a negative log10 scale, so that one unit is a factor of ten. High values mean a low Ki, low ones a high Ki. `Oc1ccc(-c2nn3cc(O)cnc3c2-c2ccc(O)cc2)cc1`: the pKi in test [1] was 5.48; in test [2] it was 5.82.
Turning to `Oc1ccc(-c2nn3c(C(F)(F)F)cc(C(F)(F)F)nc3c2-c2ccccc2)cc1`, the results for the negative-log Ki (pKi) in test [1] and in test [2] were 7.29 and 6.91, respectively.
For `Oc1ccc(-c2c(-c3ccccc3)nn3c(C(F)(F)F)cc(C(F)(F)F)nc23)cc1`, in that order: 5.65 and 6.86.
One may read the pIC50 as the negative decadic logarithm of the IC50, by convention in mol/L. In the case of `Oc1ccc(-c2nn3c(C(F)(F)F)cc(C(F)(F)F)nc3c2-c2ccc(OCCN3CCCCC3)cc2)cc1`, the pKi is 8.15 in test [1] and 7.15 in test [2]. For the same compound, the results for the pIC50 in test [3] and in test [4] were 7.40 and 7.05, respectively.
Regarding `CN(C)CCOc1ccc(-c2c(-c3ccc(O)cc3)nn3c(C(F)(F)F)cc(C(F)(F)F)nc23)cc1`, the figures for the negative-log Ki (pKi) in test [1] and in test [2] were 7.33 and 6.75, respectively. Further, the pIC50 in test [3] was 6.60; in test [4], 6.00.
For the compound `CN(C)CCOc1ccc(-c2nn3c(C(F)(F)F)cc(C(F)(F)F)nc3c2-c2ccc(O)cc2)cc1`, the values for the negative logarithm of the Ki (pKi) in test [1] and in test [2] were 6.39 and 6.81, respectively.
For `Oc1ccc(-c2c(-c3ccc(OCCN4CCCCC4)cc3)nn3c(C(F)(F)F)cc(C(F)(F)F)nc23)cc1` the same measures were 6.58 and 6.72.
For `Oc1ccc(-c2nn3c(C(F)(F)F)cc(C(F)(F)F)nc3c2-c2ccc(O)cc2)cc1`, the negative-log Ki (pKi) in test [1] is 7.59; in test [2], 7.32. Also, the negative logarithm of the IC50 (pIC50) in test [3] is 6.22; in test [4], 5.22.
